We go through two compounds from patent publication US7026344B2, “Treating sickle cell disease” (priority 2000, dated 2006).

Values joined by “and” are separate entries in the source; they are usually repeats but may differ in a detail not shown here. Equal entries are not always repeated.

In data set [1] the test system is primary erythroid progenitors (BFU-E colonies) from Hb SS patients. The experiment in a line: BFU-E colony growth in methylcellulose culture, Hb SS patients. The conditions noted are these: for fold decrease in BFU-E colony number: 0 versus 100 μM, Hb SS patients; for BFU-E Difference: 0 vs 100 μM, sickle cell patients. Type of data set: cell-based, human. The protocol:
(§1) BFU-E Colony Growth. Mononuclear cells were isolated from the peripheral blood of each patient studied by density gradient centrifugation using Histapaque-1077 (Sigma). Erythroid progenitors were obtained in methylcellulose culture. ZL was added on day 0 at 25, 50, 75, or 100 μM concentrations for 13–14 days at which time the number of BFU-E colonies were counted on an inverted microscope and harvested for hemoglobin determinations.
(§2) The capability of ZL to induce hemoglobin F in primary erythroid progenitors, grown from peripheral blood mononuclear cells (MNC) was analyzed. BFU-E colonies were grown in methylcellulose cultures supplemented with erthyopoietin and interleukin-3 and ZL at concentration from 0 to 100 μM. Three patients homozygous for hemoglobin S (Hb SS) were analyzed with triplicate experiments. The average BFU-E colony number was 123.2±18.6 without ZL compared to 10.6±2.0 at 100 μM concentrations, p<0.05 (Table 1). […] All pair-wise comparisons for BFU-E and hemoglobin F between 0μ and other concentrations (25, 50, 75 and 100 μM) were significant at p<0.05. The correlation coefficient between the number of BFU-E colonies or percent hemoglobin F and different levels of ZL is −0.90 and +0.79, respectively (p<0.05). […] (See Yang et al., BFU-E colony growth in response to hydroxyurea: correlation between in vitro and in vivo fetal hemoglobin induction. Am J Hematol. 1997; 56:252–258). […] HU either was more efficient in inhibiting BFU-E colony growth or alternatively the baseline number of colonies on an average was higher for the Hb SS patients in the HU cohort.

Data set [2] concerns fetal hemoglobin production in primary erythroid progenitors from Hb SS patients. Briefly: Hemoglobin F determination in erythroid progenitors, Hb SS patients. It is filed as cell-based, human. The conditions noted are these: for fold increase in hemoglobin F: 0 versus 100 μM, Hb SS patients; for HbF Difference: 0 vs 100 μM, sickle cell patients. The protocol:
as §1
Hemoglobin F determination. The erythroid progenitors were collected, washed in PBS then lysed at room temperature in 200 μl of water. The supernatant was split into two tubes, one for total hemoglobin determination and one for hemoglobin F determination. In brief, IgG (10 μl), 1.2 N NaOH (7 μl) and saturated (NH4)2SO4 (70 μl) were added to the hemoglobin F sample. The denatured hemoglobin was pelleted and the supernatant containing hemoglobin F was mixed with 500 μl of tetramethyl benzidine and 500 μl of H2O2 at room temperature then quantitated on a spectrophotometer at 600 nm. The percentage of fetal hemoglobin to total hemoglobin was determined.
as §2

For data set [3], the system named is human γ (Huγ) mRNA in K562 cells. The experiment in a line: γ globin mRNA induction in K562 cells by RNase protection assay. It is filed as cell-based. The conditions noted are these: K562, 48 hours, normalized to GAPD vs untreated. The protocol:
Cell Culture. K562 cells were grown in suspension cultures in RPMI-1640 containing 10% fetal bovine serum, penicillin (100 U/ml) and streptomycin (0.1 mg/ml in a humidified incubator at 37° C. in a 5%CO2/95% air atmosphere. The following experimental conditions were analyzed in triplicate with 2×10^6 cells per well: an untreated control, ZL dissolved in 0.1% dimethylsulfoximide (DMSO) at final concentrations of […], HU at […] and two positive controls hemin (50 mM) and sodium butyrate (NB) 2 mM. The K562 cells were induced for 72 hours then RNA isolated for further analysis. Cell viability was completed by 2% trypan blue exclusion at timnes 0 and 72 hours.
RNA Isolation. RNA was isolated using RNA Stat-60 (TEL-TEST “B”, Inc., Friendswood, Tex.) according to the manufacturer's instructions. In brief, cell pellets will be suspended in RNA Stat-60 (1 ml) and chloroform (200 μl), and the RNA extracted and precipitated with isopropanol.
RNase Protection Analysis. MRNA levels will be quantitated by RNase protection assay (RPA) with probes designed to yield protected fragments for human γ (Huγ)and the internal control glyceraldehydes-3-phosphate dehydrogenase (GAPD). Huγ mRNA levels were normalized to that of GAPD and compared to the untreated K562 cells. (Zar: Statistical Analysis, Englewood)
Several pharmacological hemoglobin F inducers such as HU, 5-azacytidine, erythropoietin, didox, and butyrate alter γ gene expression in culture. The induction of γ gene activity in culture is a good indicator of potential clinical usefulness. Therefore the capability of ZL to induce γ gene activity at the mRNA level was tested. K562 cells were cultured in ZL from 0 to 100 μM or HU (50μ to 100 μM) for 48 hours. Total cellular RNA was analyzed by RPA for γ mRNA levels. An increase in γ mRNA for ZL at 20 μM with a maximal response at 75 μM (FIG. 4A) was observed. The level of γ gene mRNA synthesis was quantitated relative to the internal control, CAPD. […] K562 cell viability was decreased 10% when measured using trypan blue exclusion at 75 μM and 100 μM concentrations for both ZL and HU. The level of γ gene induction was 3.9 fold and 10-fold for the positive controls NB and hemin, respectively.

A further data set deals with K562 cells. Briefly: K562 cell viability by trypan blue exclusion. It is filed as cell-based, human. The conditions noted are these: 75 μM and 100 μM. The protocol:
Cell Culture. K562 cells were grown in suspension cultures in RPMI-1640 containing 10% fetal bovine serum, penicillin (100 U/ml) and streptomycin (0.1 mg/ml in a humidified incubator at 37° C. in a 5%CO2/95% air atmosphere. […] The K562 cells were induced for 72 hours then RNA isolated for further analysis. Cell viability was completed by 2% trypan blue exclusion at timnes 0 and 72 hours.

[4] abbreviates: zileuton 25 μM, mean ± SEM of three Hb SS patients.
[5] abbreviates: zileuton 50 μM, mean ± SEM of three Hb SS patients.
Setting [6] is: zileuton 75 μM, mean ± SEM of three Hb SS patients.
The mark [7] stands for this setting: zileuton 100 μM, mean of three Hb SS patients.
Setting [8] is: zileuton 100 μM, mean of three Hb SS patients, listed as zileuton.

Turning to `CC(c1cc2ccccc2s1)N(O)C(N)=O` (racemic) [ZL, (±)-1-(1-Benzo[b]thien-2-ylethyl)-1-hydroxyurea], in data set [1], the “fold decrease in BFU-E colony number” value is 11.7 fold. For the same compound, the “BFU-E Difference” value in data set [1] came to 112.6 ± 19.1. In addition, the BFU-E in data set [1] (zileuton 25 μM, individual Hb SS patients (No. 1-3), colony number, 13–14 days) was 137 and 61 and 91; in data set [1] (setting [4]) it was 96.4 ± 11.1; in data set [1] (zileuton 50 μM, individual Hb SS patients (No. 1-3), colony number), 62 and 47 and 72; in data set [1] (setting [5]) it was 60.4 ± 4.3; in data set [1] (zileuton 75 μM, individual Hb SS patients (No. 1-3), colony number), 23 and 27 and 43; in data set [1] (setting [6]) it was 31.1 ± 3.2. The BFU-E was 13 and 12 and 7 in data set [1] (zileuton 100 μM, individual Hb SS patients (No. 1-3), colony number); 10.6±2.0 and 10.5 in data set [1] (setting [7]); 10.5 ± 1.3 in data set [1] (setting [8]). Also, in data set [2], the “fold increase in hemoglobin F” value turned out to be 4.8 fold. The “HbF Difference” value in data set [2] was 12.6 ± 1.1%. Also, the HbF in data set [2] (zileuton 25 μM, individual Hb SS patients (No. 1-3)) was 3% and 4% and 11%; in data set [2] (setting [4]), 6.2 ± 1.4%; in data set [2] (zileuton 50 μM, individual Hb SS patients (No. 1-3)) it was 6% and 7% and 14%; in data set [2] (setting [5]), 11.9 ± 1.3%; in data set [2] (zileuton 75 μM, individual Hb SS patients (No. 1-3)), 11% (2×) and 18%; in data set [2] (setting [6]), 13.2 ± 1.4%. In addition, the HbF is 13% and 14% and 21% in data set [2] (zileuton 100 μM, individual Hb SS patients (No. 1-3)); 15.9±1.4% and 15.9% in data set [2] (setting [7]); 15.9 ± 1.4% in data set [2] (setting [8]). In addition, in data set [3] (ZL 20 μM), the “fold increase in γ mRNA” value was determined as 2.6 fold. The “fold increase in γ mRNA (maximal)” value in data set [3] (ZL 75 μM) was 4.1 fold. The “decrease in K562 cell viability” value in the data set on K562 cells came out at 10%.
For `NC(=O)NO` [HU, Hydroxyurea], in data set [1], the “fold decrease in BFU-E colony number” value is recorded as 21.3 fold and the “BFU-E Difference” value was 146.4 ± 9.1. In data set [2], the “fold increase in hemoglobin F” value was found to be 3.8 fold and the “HbF Difference” value is recorded as 14.4 ± 1.5%. Further, the “fold increase in γ mRNA” value in data set [3] (HU 100 μM) was determined as 2.7 fold. In the data set on K562 cells, the “decrease in K562 cell viability” value was found to be 10%.
